According to PMC11314410, “Synthesis and Anti-Trypanosoma cruzi Activity of New Pyrazole-Thiadiazole Scaffolds” (Molecules, 2024):
Like-named read-outs stand apart in the source and are kept apart here.

Key:
[1] = system: Trypomastigotes of T. cruzi (Dm28c-Luc); experiment: microbe, parasite or virus in culture; assay type: cell-based, Trypanosoma cruzi; conditions: for IC50 / IC90: Trypanosoma cruzi, Dm28c-Luc, 24 h treatment; for IC50: 24 h, mean ± SD, read-out: Anti-T. cruzi Activity Trypomastigotes IC50; for IC90: read-out: Anti-T. cruzi Activity Trypomastigotes IC90
Description: (§1) Genetically modified T. cruzi parasites, of clone Dm28c (TcI) expressing the firefly luciferase enzyme gene (Dm28c-Luc), were kindly provided by Dr. Cristina Henriques. T. cruzi Dm28c-Luc was maintained in a Vero cell cultivated in RPMI 1640 medium supplemented with 10% FBS. At 4-day post-infection (dpi), trypomastigotes, released in the cell culture supernatant, were harvested, followed by sedimentation (4000 rpm/20 min/4 °C) and quantification in a Neubauer chamber. Isolated trypomastigotes were used in the phenotypic screening assays as well as the antiparasitic activity in 3D cardiac microtissues, recovery (washout), and drug combination assays.
Drug screening was performed against clinically relevant forms of T. cruzi (amastigotes and trypomastigotes). Trypomastigotes, Dm28c-Luc (1 × 10^6 parasites/well), were added to 96-well plates and incubated with pyrazole-thiadiazole derivatives or Bz (100–0.41 µM). After 24 h of treatment (37 °C), the viability of the parasites was analyzed by adding a D-Luciferin solution (300 µg/mL) and luminescence was measured in the Glomax microplate reader.

[2] = Toxicity in mammalian cells (CellTiter Glo, 72 h); assay type: cell-based; conditions: African green monkey, Vero cells; 72 h, ATP levels; read-out: Cytotoxicity Vero Cells CC50
Description: Vero cell cultures grown in RPMI 1640 medium containing 10% fetal bovine serum (FBS) were cultured at 37 °C in a humidified atmosphere of 5% CO2 [82]. The cultures were used for drug screening assays and to obtain culture-derived trypomastigotes of T. cruzi.
Vero cells (1.5 ×10^4 cells/well), cultivated for 24 h at 37 °C in white 96-well plates with clear bottoms, were used to assess the toxicity of the pyrazole-thiadiazole derivatives (series 1 and 2). After washing, the cells were incubated for 72 h at 37 °C with different drug concentrations (500–1.95 μM). Cell viability was measured by adding 20 μL/well of CellTiter Glo reagent (Promega Corporation, Madison, WI, USA). This cell viability kit generates a luminescent signal proportional to the amount of ATP. The luminescence readout was performed using the Glomax Microplate Reader (Promega Corporation, Madison, WI, USA). Thus, the 50% cytotoxicity concentration (CC50), which reduces the cell viability by 50% (CC50), was calculated with Prism GraphPad software (version 8.2.1).

[3] = system: Intracellular amastigotes of T. cruzi (Dm28c-Luc); experiment: microbe, parasite or virus in culture; assay type: cell-based, Trypanosoma cruzi; conditions: for IC50 / IC90: Trypanosoma cruzi; for IC90: read-out: Anti-T. cruzi Activity Intracellular Amastigotes IC90
Description: as §1
The activity of pyrazole-thiadiazole derivatives against intracellular amastigotes was evaluated in 24 h-T. cruzi infected Vero cell cultures (1.5 × 10^4 cells/well) at a 10:1 ratio. The cultures were washed and incubated with serial dilutions of the derivatives or Bz (100–0.41 µM). Drug treatment was carried out for 72 h at 37 °C and the parasite viability was determined by luminescence readout after D-Luciferin substrate addition (300 µg/mL). The reading was performed in the Glomax reader. The cell cultures incubated with the culture medium containing dimethylsulphoxide (DMSO; concentration ≤ 1%) were used as the […]. The concentrations required to inhibit parasite viability by 50% (IC50) and 90% (IC90) were calculated using Prism GraphPad software (version 8.2.1). The selectivity index (SI), which measures the window between cytotoxicity (CC50) and anti-T. cruzi activity (IC50), was calculated as CC50/IC50. A minimum of 3 independent assays in duplicate were performed.

[4] = Vero, read-out: Intracellular Amastigotes pIC50 (converted)
[5] = Dm28c-Luc in Vero cells, 72 h treatment, mean ± SD, read-out: Anti-T. cruzi Activity Intracellular Amastigotes IC50
[6] = Dm28c-Luc in Vero cells, 72 h treatment, mean ± SD

Compound | melting point | Trypomastigotes SI (CC50 of Vero cells/IC50 of trypomastigotes) [1] | IC50 [1] | IC90 [1] | CC50 at 72 h [2] | Intracellular Amastigotes SI (CC50 of Vero cells/IC50 of intracellular amastigotes) [3] | IC50 [3, 4] | IC50 [3, 5] | IC90 [3, 6]
Nc1nnc(-c2cnn(-c3ccc([N+](=O)[O-])cc3)c2)s1 [1k, 5-Amino-2-(1-(4-nitrophenyl)-1H-pyrazol-4-yl)-1,3,4-thiadiazole] | 331 to 333 °C | >5 | > 100 µM | > 100 µM | > 500 µM | >8.16 | 58.9 µM | 58.3 ± 12.8 µM | > 70 µM
Nc1nnc(-c2cnn(-c3ccc(Br)cc3)c2)s1 [1i, 5-Amino-2-(1-(4-bromophenyl)-1H-pyrazol-4-yl)-1,3,4-thiadiazole] | 340 to 341 °C | >5 | > 100 µM | > 100 µM | > 500 µM | >17.53 | 28.2 µM | 28.4 ± 1.77 µM | > 70 µM
Nc1nnc(-c2cnn(-c3cccc(Cl)c3)c2)s1 [1b, 5-Amino-2-(1-(3-chlorophenyl)-1H-pyrazol-4-yl)-1,3,4-thiadiazole] | 310 to 311 °C | >5 | > 100 µM | > 100 µM | > 500 µM | >7.73 | 67.6 µM | 68.1 ± 2.99 µM | > 70 µM
COc1ccc(-n2cc(-c3nnc(N)s3)cn2)cc1 [1l, 5-Amino-2-(1-(4-methoxyphenyl)-1H-pyrazol-4-yl)-1,3,4-thiadiazole] | 298 to 300 °C | >9.43 | 53 ± 4.44 µM | > 100 µM | > 500 µM | >19.08 | 24.5 µM | 24.5 ± 4.21 µM | > 70 µM
Nc1nnc(-c2cnn(-c3cccc(Br)c3)c2)s1 [1j, 5-Amino-2-(1-(3-bromophenyl)-1H-pyrazol-4-yl)-1,3,4-thiadiazole] | 301 to 303 °C | >5 | > 100 µM | > 100 µM | > 500 µM | >7.14 | > 70.8 µM | > 70 µM | > 70 µM
Nc1nnc(-c2cnn(-c3cccc(Br)c3)c2N)s1 [2j, 5-Amino-2-(5-amino-1-(3-bromophenyl)-1H-pyrazol-4-yl)-1,3,4-thiadiazole] | 245 to 246 °C | >5 | > 100 µM | > 100 µM | > 500 µM | >7.14 | > 70.8 µM | > 70 µM | > 70 µM
Nc1nnc(-c2cnn(-c3ccc(F)cc3)c2N)s1 [2g, 5-Amino-2-(5-amino-1-(4-fluorophenyl)-1H-pyrazol-4-yl)-1,3,4-thiadiazole] | 251 to 253 °C | >5 | > 100 µM | > 100 µM | > 500 µM | >7.14 | > 70.8 µM | > 70 µM | > 70 µM
Nc1nnc(-c2cnn(-c3cccc(F)c3)c2N)s1 [2h, 5-Amino-2-(5-amino-1-(3-fluorophenyl)-1H-pyrazol-4-yl)-1,3,4-thiadiazole] | 285 to 286 °C | >5 | > 100 µM | > 100 µM | > 500 µM | >7.14 | > 70.8 µM | > 70 µM | > 70 µM
Nc1nnc(-c2cnn(-c3cc(Cl)cc(Cl)c3)c2)s1 [1d, 5-Amino-2-(1-(3,5-dichlorophenyl)-1H-pyrazol-4-yl)-1,3,4-thiadiazole] | 283 to 285 °C | >5 | > 100 µM | > 100 µM | > 500 µM | >8.29 | 58.9 µM | 58.7 ± 12.3 µM | > 70 µM
Nc1nnc(-c2cnn(-c3ccc(Cl)c(Cl)c3)c2N)s1 [2e, 5-Amino-2-(5-amino-1-(3,4-dichlorophenyl)-1H-pyrazol-4-yl)-1,3,4-thiadiazole] | 258 to 260 °C | >6.88 | 72.6 ± 6.76 µM | > 100 µM | > 500 µM | >13.73 | 33.9 µM | 33.6 ± 2.16 µM | 58.8 ± 8.26 µM
Nc1nnc(-c2cnn(-c3cccc(Cl)c3)c2N)s1 [2b, 5-Amino-2-(5-amino-1-(3-chlorophenyl)-1H-pyrazol-4-yl)-1,3,4-thiadiazole] | 289 to 291 °C | >5 | > 100 µM | > 100 µM | > 500 µM | >7.14 | > 70.8 µM | > 70 µM | > 70 µM
Nc1nnc(-c2cnn(-c3ccccc3)c2N)s1 [2a, 5-Amino-2-(5-amino-1-phenyl-1H-pyrazol-4-yl)-1,3,4-thiadiazole] | 131 to 132 °C | >5 | > 100 µM | > 100 µM | > 500 µM | >7.14 | > 70.8 µM | > 70 µM | > 70 µM
Nc1nnc(-c2cnn(-c3ccccc3)c2)s1 [1a, 5-Amino-2-(1-phenyl-1H-pyrazol-4-yl)-1,3,4-thiadiazole] | 289 to 291 °C | >5 | > 100 µM | > 100 µM | > 500 µM | >7.49 | 69.2 µM | 68.6 ± 1.03 µM | > 70 µM
Nc1nnc(-c2cnn(-c3ccc(Cl)c(Cl)c3)c2)s1 [1e, 5-Amino-2-(1-(3,4-dichlorophenyl)-1H-pyrazol-4-yl)-1,3,4-thiadiazole] | 313 to 315 °C | >5 | > 100 µM | > 100 µM | > 500 µM | >25.64 | 18.6 µM | 18.8 ± 2.28 µM | 40.4 ± 13.3 µM
Nc1nnc(-c2cnn(-c3cccc(F)c3)c2)s1 [1h, 5-Amino-2-(1-(3-fluorophenyl)-1H-pyrazol-4-yl)-1,3,4-thiadiazole] | 302 to 303 °C | >5 | > 100 µM | > 100 µM | > 500 µM | >7.86 | 67.6 µM | 66.8 ± 3.37 µM | > 70 µM
Nc1nnc(-c2cnn(-c3ccc(Br)cc3)c2N)s1 [2i, 5-Amino-2-(5-amino-1-(4-bromophenyl)-1H-pyrazol-4-yl)-1,3,4-thiadiazole] | 286 to 287 °C | >5 | > 100 µM | > 100 µM | > 500 µM | >7.58 | 69.2 µM | 68.73 ± 0.05 µM | > 70 µM
